Laboratory results from patent publication US20080199449A1, “Methods and Compositions for Use in Treating Vascular Diseases and Conditions” (The General Hospital Corporation, priority 2005, published 2008).
Entries after “also recorded” stand apart in the source; their conditions may differ. Blank lines part the entries; values can stand above or below the compound they belong to.

How the values were obtained:
[1] = system: gridlock phenotype (atresia of the proximal aorta in grl^m145 mutants); experiment: Suppression of the gridlock phenotype (restoration of trunk and tail circulation) in grl^m145 mutant embryos; assay type: in vivo, zebrafish
Method: Screening for suppressors of the gridlock phenotype. The screen was performed as previous described with modifications (Peterson et al., Nature Biotechnology 22:595-599, 2004). Briefly, pairs of homozygous grl^m145 zebrafish were mated, and fertilized eggs were arrayed in 96-well plates containing E3 embryo buffer. At the 6-somite stage, small molecules from the DiverSet E library (Chembridge) were added to each well, yielding a final concentration of 2.5 μM. Embryos were incubated at 28.5° C. for 48 hrs. Circulation to the tail was assessed visually using a dissecting microscope.
Fluorescent microangiography. Fluorescence microangiography was performed as previously described (Weinstein et al., Nature Medicine 1:1143-1147, 1995).

[2] = system: gridlock phenotype (atresia of the proximal aorta in grl^m145 mutants); conditions: whole zebrafish embryos; Peterson et al., Nature Biotechnology 22:595-599, 2004; cited from earlier work
[3] = system: dorsal aorta and cardinal veins; experiment: Artery-vein morphology in embryos expressing GFP in endothelial cells (fli-1 promoter); assay type: in vivo, zebrafish; conditions: for Vascular defects at higher doses: doses higher than the 1- to 5 μM suppressing range
[4] = system: zebrafish embryos; experiment: Gross embryonic morphology and lethality after compound exposure; assay type: in vivo

SMILES: COc1ccc(SCCc2ccncc2)cc1.Cl [GS4012]
- Suppression of the gridlock phenotype, single treatment at sub-effective dose ([1]; GS4898 0.75 μM, LY294002 3 μM, wortmannin 0.075 μM, GS4012 0.7 μg/mL (FIG. 1F)): does not suppress
- Suppression of the gridlock phenotype (tail circulation) ([1]; homozygous grl^m145 mutant zebrafish embryos): suppressed
- Suppression of the vascular defect in gridlock mutant embryos (earlier screen) [2]: suppresses the vascular defect in gridlock mutant embryos

- Vascular defects at higher doses [3]: severe vascular defects
SMILES: O=c1cc(N2CCOCC2)oc2c(-c3ccccc3)cccc12 [LY294002]

SMILES: N#C/C(=C(/N)Sc1ccc(N)cc1)c1ccccc1C(F)(F)F [SL327]
- Gross embryonic morphology, treatment starting at 12-hpf ([4]; 36-hpf embryos, GS4898 10 μM, SL327 60 μM (FIG. 5)): moderately deformed tail curvature, but otherwise grossly intact head organogenesis, somitogenesis, and yolk extension
- Embryonic lethality and gross defects, treatment at stages earlier than 12-hpf ([4]; treatment of embryos at earlier stages (FIG. 5)): high degree of embryonic lethality and variable gross morphologic defects

SMILES: N#CC(=C(/N)Sc1ccccc1N)/C(C#N)=C(\N)Sc1ccccc1N [U0126]
- Effect on aorta (artery formation) ([3]; 48-hpf fli-1 GFP embryos, GS4898 15 μM, U0126 100 μM, SL327 (FIG. 3E-G)): either loss or reduction of aorta; also recorded: the aorta is greatly reduced
- Effect on vein (posterior/common cardinal vein, vein formation) ([3]; 48-hpf fli-1 GFP embryos, GS4898 15 μM, U0126 100 μM, SL327 (FIG. 3F, G)): expansion of the common cardinal vein; also recorded: enlarged

SMILES: COC[C@H]1OC(=O)c2coc3c2[C@@]1(C)C1=C(C3=O)[C@@H]2CCC(=O)[C@@]2(C)C[C@H]1OC(C)=O [wortmannin]
- Vascular defects at higher doses [3]: severe vascular defects
